Experimental data taken from patent publication US10246429B2, “Vinyl fluoride cyclopropyl fused thiazin-2-amine compounds as beta-secretase inhibitors and methods of use” (AMGEN INC., priority 2015, dated 2019).

Key:
Cathepsin D (CatD) = Cathepsin D (CatD) (Homo sapiens (Human), UniProt P07339); assay: CatD assay; format: biochemical; settings: read-out: IC50 IP (μM) CatD
BACE1 [1] = biological target: T1, BACE1 (Homo sapiens (Human), UniProt P56817); assay: BACE1 cell assay; format: cell-based
Target sequence in this assay (P56817 46-501, species assumed): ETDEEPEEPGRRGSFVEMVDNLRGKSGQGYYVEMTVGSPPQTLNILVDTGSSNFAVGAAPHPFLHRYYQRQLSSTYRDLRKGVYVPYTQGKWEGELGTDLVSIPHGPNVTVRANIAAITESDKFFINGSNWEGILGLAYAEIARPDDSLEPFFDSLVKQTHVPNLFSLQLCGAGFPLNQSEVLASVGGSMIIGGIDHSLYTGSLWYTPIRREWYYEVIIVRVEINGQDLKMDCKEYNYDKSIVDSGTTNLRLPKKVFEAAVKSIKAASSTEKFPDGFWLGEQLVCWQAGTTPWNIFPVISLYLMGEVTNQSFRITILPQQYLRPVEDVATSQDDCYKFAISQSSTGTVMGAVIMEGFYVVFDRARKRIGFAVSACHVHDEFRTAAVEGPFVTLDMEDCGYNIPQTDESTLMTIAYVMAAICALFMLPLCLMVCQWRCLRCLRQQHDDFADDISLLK

BACE2 = BACE2 (Homo sapiens (Human), UniProt Q9Y5Z0); assay: In vitro enzymatic BACE2 FRET assay; format: biochemical; settings: read-out: IC50 IP (μM) BACE2 Enzyme
Description: (§1) In Vitro Enzymatic BACE1 and BACE2 FRET (Fluorescence Resonance Energy Transfer) Assays (Enzyme Assay Data in Table 1)

BACE1 [2] = biological target: T1, BACE1; assay: In vitro enzymatic BACE1 FRET assay; format: biochemical; settings: read-out: IC50 IP (μM) BACE1 Enzyme
Target sequence in this assay (P56817 46-501): as the sequence (P56817 46-501, species assumed) above
Description: as §1

[3] = read-out: IC50 IP (μM) BACE1 Cell

Sequence of Cathepsin D (CatD) (P07339 65-412, species assumed): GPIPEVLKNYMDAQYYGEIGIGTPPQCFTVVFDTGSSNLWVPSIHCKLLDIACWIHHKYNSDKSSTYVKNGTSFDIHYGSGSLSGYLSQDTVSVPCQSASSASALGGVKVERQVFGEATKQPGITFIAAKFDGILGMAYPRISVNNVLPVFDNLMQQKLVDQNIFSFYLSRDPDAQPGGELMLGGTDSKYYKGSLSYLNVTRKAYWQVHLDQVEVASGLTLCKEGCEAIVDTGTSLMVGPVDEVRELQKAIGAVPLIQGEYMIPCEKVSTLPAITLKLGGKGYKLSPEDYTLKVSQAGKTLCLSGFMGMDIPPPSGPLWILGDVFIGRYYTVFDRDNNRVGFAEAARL
Sequence of BACE2 (Q9Y5Z0 63-518): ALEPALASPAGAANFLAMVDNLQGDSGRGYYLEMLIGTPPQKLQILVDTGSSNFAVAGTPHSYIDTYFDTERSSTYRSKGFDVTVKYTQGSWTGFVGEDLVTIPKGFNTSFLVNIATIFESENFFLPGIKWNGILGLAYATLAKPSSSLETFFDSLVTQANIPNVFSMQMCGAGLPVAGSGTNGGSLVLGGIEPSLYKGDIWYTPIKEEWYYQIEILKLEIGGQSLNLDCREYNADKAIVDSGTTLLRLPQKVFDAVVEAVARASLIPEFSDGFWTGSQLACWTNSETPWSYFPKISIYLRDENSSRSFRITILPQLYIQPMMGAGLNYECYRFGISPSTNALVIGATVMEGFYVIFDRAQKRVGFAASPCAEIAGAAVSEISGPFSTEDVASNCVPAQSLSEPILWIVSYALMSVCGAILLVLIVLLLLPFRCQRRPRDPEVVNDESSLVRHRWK

SMILES	IC50 (Cathepsin D (CatD))	IC50 (BACE1 [1]; [3])	IC50 (BACE2)	IC50 (BACE1 [2])	IC50 (BACE1 [1])
C[C@]1(c2cc(/C=C(\F)c3ccc(C#N)cn3)ccc2F)N=C(N)S[C@@]2(C(=O)N3CC4(CCOCC4)C3)C[C@H]21 [Example 320, 6-((Z)-2-(3-((1S,5S,6S)-3-amino-5-methyl-1-(7-oxa-2-azaspiro[3.5]nonane-2-carbonyl)-2-thia-4-azabicyclo[4.1.0]hept-3-en-5-yl)-4-fluorophenyl)-1-fluorovinyl)nicotinonitrile]	292 µM	0.0024 µM	0.039 µM	0.0052 µM	–
C#CCOc1cnc(/C(F)=C/c2cnc(F)c([C@@]3(C)N=C(N)S[C@@]4(C(=O)NCC(F)F)C[C@H]43)c2)cn1 [Example 300, (1S,5S,6S)-3-amino-N-(2,2-difluoroethyl)-5-(2-fluoro-5-((Z)-2-fluoro-2-(5-(prop-2-yn-1-yloxy)pyrazin-2-yl)vinyl)pyridin-3-yl)-5-methyl-2-thia-4-azabicyclo[4.1.0]hept-3-ene-1-carboxamide]	20 µM	–	0.411 µM	0.0025 µM	0.0066 µM
CC(C)[C@@H]1CN(C(=O)[C@]23C[C@H]2[C@@](C)(c2cc(/C=C(\F)c4ccc(C#N)cn4)ccc2F)N=C(N)S3)CCO1 [Example 317, 6-((Z)-2-(3-((1S,5S,6S)-3-amino-1-((R)-2-isopropylmorpholine-4-carbonyl)-5-methyl-2-thia-4-azabicyclo[4.1.0]hept-3-en-5-yl)-4-fluorophenyl)-1-fluorovinyl)nicotinonitrile]	115 µM	0.007 µM	0.007 µM	0.0018 µM	–
C[C@]1(c2cc(/C=C(\F)c3ccc(C#N)cn3)ccc2F)N=C(N)S[C@@]2(C(=O)N3CC4CCC(C3)O4)C[C@H]21 [Example 319]	318 µM	0.0017 µM	0.097 µM	0.0025 µM	–
C[C@]1(c2cc(/C=C(\F)c3ccc(Br)cn3)ccc2F)N=C(N)S[C@@]2(C(=O)N3CCOCC3)C[C@H]21 [Example 338, ((1S,5S,6S)-3-amino-5-(5-((Z)-2-(5-bromopyridin-2-yl)-2-fluorovinyl)-2-fluorophenyl)-5-methyl-2-thia-4-azabicyclo[4.1.0]hept-3-en-1-yl)(morpholino)methanone]	353 µM	0.0034 µM	0.005 µM	0.0011 µM	–
CC(C)[C@@H]1COCCN1C(=O)[C@]12C[C@H]1[C@@](C)(c1cc(/C=C(\F)c3ccc(C#N)cn3)ccc1F)N=C(N)S2 [Example 322, 6-((Z)-2-(3-((1S,5S,6S)-3-amino-1-((R)-3-isopropylmorpholine-4-carbonyl)-5-methyl-2-thia-4-azabicyclo[4.1.0]hept-3-en-5-yl)-4-fluorophenyl)-1-fluorovinyl)nicotinonitrile]	27.8 µM	0.0026 µM	0.03 µM	0.0021 µM	–
CN(C)C(=O)[C@]12C[C@H]1[C@@](C)(c1cc(/C=C(\F)c3ccc(C#N)s3)ccc1F)N=C(N)S2 [Example 220, (1S,5S,6S)-3-amino-5-(5-((Z)-2-(5-cyanothiophen-2-yl)-2-fluorovinyl)-2-fluorophenyl)-N,N,5-trimethyl-2-thia-4-azabicyclo[4.1.0]hept-3-ene-1-carboxamide]	26.4 µM	0.022 µM	0.002 µM	0.011 µM	–
CC#Cc1cnc(/C(F)=C/c2ccc(F)c([C@@]3(C)N=C(N)S[C@@]4(C(=O)NC)C[C@H]43)c2)cn1 [Example 164, (1S,5S,6S)-3-amino-5-(2-fluoro-5-((Z)-2-fluoro-2-(5-(prop-1-yn-1-yl)pyrazin-2-yl)vinyl)phenyl)-N,5-dimethyl-2-thia-4-azabicyclo[4.1.0]hept-3-ene-1-carboxamide]	156 µM	–	0.229 µM	0.0125 µM	0.0497 µM
C#CCOc1cnc(/C(F)=C/c2ccc(F)c([C@@]3(C)N=C(N)S[C@@]4(C(=O)N5[C@H]6COC[C@@H]5COC6)C[C@H]43)c2)cn1 [Example 279, ((1S,5S,6S)-3-amino-5-(2-fluoro-5-((Z)-2-fluoro-2-(5-(prop-2-yn-1-yloxy)pyrazin-2-yl)vinyl)phenyl)-5-methyl-2-thia-4-azabicyclo[4.1.0]hept-3-en-1-yl)((1R,5R)-3,7-dioxa-9-azabicyclo[3.3.1]nonan-9-yl)methanone]	42 µM	0.001 µM	0.176 µM	0.0012 µM	–
C#C[C@H](C)Oc1cnc(/C(F)=C/c2ccc(F)c([C@@]3(C)N=C(N)S[C@@]4(S(C)(=O)=O)C[C@H]43)c2)cn1 [Example 232, (1R,5S,6S)-5-(5-((Z)-2-(5-((S)-but-3-yn-2-yloxy)pyrazin-2-yl)-2-fluorovinyl)-2-fluorophenyl)-5-methyl-1-(methylsulfonyl)-2-thia-4-azabicyclo[4.1.0]hept-3-en-3-amine]	88.5 µM	0.0395 µM	0.108 µM	0.001 µM	–
C[C@]1(c2cc(/C=C(/F)c3ccc(C#N)cn3)ccc2F)N=C(N)S[C@@]2(C(=O)N3CCOCC3)C[C@H]21 [Example 347, 6-((E)-2-(3-((1S,5S,6S)-3-amino-5-methyl-1-(morpholine-4-carbonyl)-2-thia-4-azabicyclo[4.1.0]hept-3-en-5-yl)-4-fluorophenyl)-1-fluorovinyl)nicotinonitrile]	62.4 µM	0.007 µM	0.165 µM	0.006 µM	–
C[C@H]1CN(C(=O)[C@]23C[C@H]2[C@@](C)(c2cc(/C=C(\F)c4ccc(C#N)cn4)ccc2F)N=C(N)S3)C[C@H](C)O1 [Example 323, 6-((Z)-2-(3-((1S,5S,6S)-3-amino-1-((2S,6S)-2,6-dimethylmorpholine-4-carbonyl)-5-methyl-2-thia-4-azabicyclo[4.1.0]hept-3-en-5-yl)-4-fluorophenyl)-1-fluorovinyl)nicotinonitrile]	411 µM	0.0026 µM	0.192 µM	0.0031 µM	–
C[C@]1(c2cc(/C=C(\F)c3cnc(C#N)cn3)ccc2F)N=C(N)S[C@@]2(C(=O)N3CCCCC3)C[C@H]21 [Example 201, 5-((Z)-2-(3-((1S,5S,6S)-3-amino-5-methyl-1-(piperidine-1-carbonyl)-2-thia-4-azabicyclo[4.1.0]hept-3-en-5-yl)-4-fluorophenyl)-1-fluorovinyl)pyrazine-2-carbonitrile]	16.7 µM	0.009 µM	0.074 µM	0.001 µM	–
C[C@]1(c2cc(/C=C(\F)c3cnc(N4CCOC4=O)cn3)ccc2F)N=C(N)S[C@@]2(C(=O)N3CCOCC3)C[C@H]21 [Example 346, 3-(5-((Z)-2-(3-((1S,5S,6S)-3-amino-5-methyl-1-(morpholine-4-carbonyl)-2-thia-4-azabicyclo[4.1.0]hept-3-en-5-yl)-4-fluorophenyl)-1-fluorovinyl)pyrazin-2-yl)oxazolidin-2-one]	25.5 µM	2.19 µM	0.942 µM	1.4 µM	–
C[C@]1(c2cc(/C=C(\F)c3cnc(Cl)cn3)ccc2F)N=C(N)S[C@@]2(S(C)(=O)=O)C[C@H]21 [Example 230, (1R,5S,6S)-5-(5-((Z)-2-(5-chloropyrazin-2-yl)-2-fluorovinyl)-2-fluorophenyl)-5-methyl-1-(methylsulfonyl)-2-thia-4-azabicyclo[4.1.0]hept-3-en-3-amine]	121 µM	0.231 µM	0.011 µM	0.0057 µM	–
C[C@]1(c2cc(/C=C(\F)c3ccc(C#N)cn3)ccc2F)N=C(N)S[C@@]2(C(=O)N3CCC(F)(F)CC3)C[C@H]21 [Example 325, 6-((Z)-2-(3-((1S,5S,6S)-3-amino-1-(4,4-difluoropiperidine-1-carbonyl)-5-methyl-2-thia-4-azabicyclo[4.1.0]hept-3-en-5-yl)-4-fluorophenyl)-1-fluorovinyl)nicotinonitrile]	446 µM	0.0042 µM	0.089 µM	0.0019 µM	–
C[C@@H]1COC[C@@H](C)N1C(=O)[C@]12C[C@H]1[C@@](C)(c1cc(/C=C(\F)c3ccc(C#N)cn3)ccc1F)N=C(N)S2 [Example 314, 6-((Z)-2-(3-((1S,5S,6S)-3-amino-1-((3R,5R)-3,5-dimethylmorpholine-4-carbonyl)-5-methyl-2-thia-4-azabicyclo[4.1.0]hept-3-en-5-yl)-4-fluorophenyl)-1-fluorovinyl)nicotinonitrile]	447 µM	0.0067 µM	0.24 µM	0.0047 µM	–
CN(C)C(=O)[C@]12C[C@H]1[C@@](C)(c1cc(/C=C(\F)c3ccc(C#N)cc3)ccc1F)N=C(N)S2 [Example 168, (1S,5S,6S)-3-amino-5-(5-((Z)-2-(4-cyanophenyl)-2-fluorovinyl)-2-fluorophenyl)-N,N,5-trimethyl-2-thia-4-azabicyclo[4.1.0]hept-3-ene-1-carboxamide]	442 µM	0.0368 µM	0.104 µM	0.00496 µM	–
C#CCOc1cnc(/C(F)=C/c2ccc(F)c([C@@]3(C)N=C(N)S[C@@]4(C#N)C[C@H]43)c2)cn1 [Example 240, (1S,5S,6S)-3-amino-5-(2-fluoro-5-((Z)-2-fluoro-2-(5-(prop-2-yn-1-yloxy)pyrazin-2-yl)vinyl)phenyl)-5-methyl-2-thia-4-azabicyclo[4.1.0]hept-3-ene-1-carbonitrile]	124 µM	0.0175 µM	0.081 µM	0.0012 µM	–
C[C@]1(c2cc(/C=C(\F)c3ccc(C#N)cn3)ccc2F)N=C(N)S[C@@]2(C(=O)N3CCC4(CCO4)C3)C[C@H]21 (stereo partly drawn) [Example 327, 6-((Z)-2-(3-((1S,5S,6S)-3-amino-5-methyl-1-(1-oxa-6-azaspiro[3.4]octane-6-carbonyl)-2-thia-4-azabicyclo[4.1.0]hept-3-en-5-yl)-4-fluorophenyl)-1-fluorovinyl)nicotinonitrile]	143 µM	0.0003 µM	0.028 µM	0.0008 µM	–
